Source: PMC6470533, “Structure–Activity Study, Characterization, and Mechanism of Action of an Antimicrobial Peptoid D2 and Its D- and L-Peptide Analogues” (Molecules, 2019)
Converted amounts (≈) assume the structure as drawn. Non-standard residues stand in square brackets, D forms with d. Residues, ends and D or L forms follow the SMILES beside them. N(1-naphthylmethyl)Gly = O=C(O)CNCc1cccc2ccccc12; d1Nal = N[C@H](Cc1cccc2ccccc12)C(=O)O; N(4-MeBn)Gly = Cc1ccc(CNCC(=O)O)cc1; Gly(N-CH2CH2OH) = O=C(O)CNCCO; dNle = CCCC[C@@H](N)C(=O)O; NBuGly = CCCCNCC(=O)O; Nlys = NCCCCNCC(=O)O; Sar = CNCC(=O)O

Experiments:
red blood cell (RBC) = conditions: 0.5% RBC suspension in PBS, 1 h, 37 °C, read at 414 nm, normalized to mellitin and PBS, triplicates
Description: Briefly, 75 µL of peptide in PBS was mixed with 75 µL of a 0.5% red blood cell (RBC) suspension in PBS, and incubated for 1 h at 37 °C. The hemoglobin release was then measured at 414 nm and normalized, using mellitin as positive control and PBS as negative control. Experiments were done in triplicates.

[1] = tested on: Pseudomonas aeruginosa (ATCC 27853); format: cell-based; conditions: ATCC 27853, 18 h
Description: To explore the antimicrobial activity of the library of peptides and peptidomimetics, they were tested against Acinetobacter baumannii, Corynebacterium auriscanis, Escherichia coli, Enterococcus faecalis, Enterococcus faecium, Klebsiella pneumonia, Proteus mirabilis, and Pseudomonas aeruginosa. Bacteria grown on agar plates for 18 h at 37 °C were diluted to ~1 × 10^8 CFU/mL in Mueller–Hinton broth (MHB). Two-fold serial dilutions of peptides and peptidomimetics in MHB II were inoculated with bacteria to achieve a final concentration of 5 × 10^5 CFU/mL in polypropylene 96 U-well microtiter plates (Almeco, Esbjerg, Denmark), followed by incubation at 37 °C in ambient air for 18 h. The MIC values were determined as the lowest concentration showing no visible bacterial growth. Experiments were performed twice (in technical triplicates) on two different days.

[2] = tested on: Staphylococcus aureus (ATCC 29213); format: cell-based; conditions: ATCC 29213, 18 h
[3] = tested on: Methicillin sensitive Staphylococcus pseudintermedius (26916); format: cell-based; conditions: 18 h
[4] = tested on: Methicillin resistant Staphylococcus pseudintermedius, (C22963); format: cell-based; conditions: 18 h

Structure (SMILES)	HA, percentage of hemolysis at 150 µM (red blood cell (RBC))	MIC PA [1]	MIC SA [2]	MIC MSSP [3]	MIC MRSP [4]
CCCC[C@@H](NC(=O)[C@@H](CCCCN)NC(=O)[C@@H](Cc1cccc2ccccc12)NC(=O)[C@@H](CCCCN)NC(=O)CN(Cc1ccc(C)cc1)C(=O)CN(Cc1cccc2ccccc12)C(=O)CN(CCCCN)C(=O)CNCCCCN)C(N)=O [compound 13] (H-[Nlys][Nlys][N(1-naphthylmethyl)Gly][N(4-MeBn)Gly][dK][d1Nal][dK][dNle]-NH2; N-terminus assumed)	34%	8 µg/mL (≈ 6.67 µM)	8 µg/mL (≈ 6.67 µM)	4 µg/mL (≈ 3.34 µM)	4 µg/mL (≈ 3.34 µM)
CCCCN(CC(N)=O)C(=O)CN(CCCCN)C(=O)CN(Cc1cccc2ccccc12)C(=O)CN(Cc1cccc2ccccc12)C(=O)CN(Cc1ccc(C)cc1)C(=O)CN(Cc1cccc2ccccc12)C(=O)CN(CCCCN)C(=O)CNCCCCN [compound 11] (H-[Nlys][Nlys][N(1-naphthylmethyl)Gly][N(4-MeBn)Gly][N(1-naphthylmethyl)Gly][N(1-naphthylmethyl)Gly][Nlys][NBuGly]-NH2; N-terminus assumed)	87%	16 µg/mL (≈ 12.6 µM)	8 µg/mL (≈ 6.31 µM)	8 µg/mL (≈ 6.31 µM)	8 µg/mL (≈ 6.31 µM)
CCCCN(CC(N)=O)C(=O)CN(CCCCN)C(=O)CN(Cc1cccc2ccccc12)C(=O)CN(CCO)C(=O)CN(Cc1ccc(C)cc1)C(=O)CN(Cc1cccc2ccccc12)C(=O)CN(CCCCN)C(=O)CNCCCCN [compound 12] (H-[Nlys][Nlys][N(1-naphthylmethyl)Gly][N(4-MeBn)Gly][Gly(N-CH2CH2OH)][N(1-naphthylmethyl)Gly][Nlys][NBuGly]-NH2; N-terminus assumed)	5%	>64 µg/mL	32 µg/mL (≈ 27.3 µM)	8 µg/mL (≈ 6.83 µM)	8 µg/mL (≈ 6.83 µM)
CCCCN(CC(N)=O)C(=O)CN(CCCCN)C(=O)CN(Cc1cccc2ccccc12)C(=O)CNC(=O)CN(Cc1ccc(C)cc1)C(=O)CN(Cc1cccc2ccccc12)C(=O)CN(CCCCN)C(=O)CNCCCCN [compound 5] (H-[Nlys][Nlys][N(1-naphthylmethyl)Gly][N(4-MeBn)Gly]G[N(1-naphthylmethyl)Gly][Nlys][NBuGly]-NH2; N-terminus assumed)	25%	16 µg/mL (≈ 14.2 µM)	32 µg/mL (≈ 28.4 µM)	4 µg/mL (≈ 3.55 µM)	4 µg/mL (≈ 3.55 µM)
CCCCN(CC(N)=O)C(=O)CN(CCCCN)C(=O)CN(Cc1cccc2ccccc12)C(=O)CN(CCCCN)C(=O)CN(Cc1ccc(C)cc1)C(=O)CN(Cc1cccc2ccccc12)C(=O)CNC(=O)CNCCCCN [compound 2] (H-[Nlys]G[N(1-naphthylmethyl)Gly][N(4-MeBn)Gly][Nlys][N(1-naphthylmethyl)Gly][Nlys][NBuGly]-NH2; N-terminus assumed)	48%	64 µg/mL (≈ 56.8 µM)	16 µg/mL (≈ 14.2 µM)	16 µg/mL (≈ 14.2 µM)	8 µg/mL (≈ 7.1 µM)
CCCCN(CC(N)=O)C(=O)CN(CCCCN)C(=O)CN(Cc1cccc2ccccc12)C(=O)CN(Cc1ccc(C)cc1)C(=O)CN(Cc1ccc(C)cc1)C(=O)CN(Cc1cccc2ccccc12)C(=O)CN(CCCCN)C(=O)CNCCCCN [compound 10] (H-[Nlys][Nlys][N(1-naphthylmethyl)Gly][N(4-MeBn)Gly][N(4-MeBn)Gly][N(1-naphthylmethyl)Gly][Nlys][NBuGly]-NH2; N-terminus assumed)	69%	16 µg/mL (≈ 13 µM)	8 µg/mL (≈ 6.5 µM)	8 µg/mL (≈ 6.5 µM)	8 µg/mL (≈ 6.5 µM)
CCCCN(CC(N)=O)C(=O)CNC(=O)CN(Cc1cccc2ccccc12)C(=O)CN(CCCCN)C(=O)CN(Cc1ccc(C)cc1)C(=O)CN(Cc1cccc2ccccc12)C(=O)CN(CCCCN)C(=O)CNCCCCN [compound 7] (H-[Nlys][Nlys][N(1-naphthylmethyl)Gly][N(4-MeBn)Gly][Nlys][N(1-naphthylmethyl)Gly]G[NBuGly]-NH2; N-terminus assumed)	85%	16 µg/mL (≈ 14.2 µM)	16 µg/mL (≈ 14.2 µM)	8 µg/mL (≈ 7.1 µM)	4 µg/mL (≈ 3.55 µM)
CCCCN(CC(N)=O)C(=O)[C@@H](CCCCN)NC(=O)CN(Cc1cccc2ccccc12)C(=O)[C@@H](CCCCN)NC(=O)CN(Cc1ccc(C)cc1)C(=O)CN(Cc1cccc2ccccc12)C(=O)[C@@H](CCCCN)NC(=O)[C@H](N)CCCCN [compound 16] (H-[dK][dK][N(1-naphthylmethyl)Gly][N(4-MeBn)Gly][dK][N(1-naphthylmethyl)Gly][dK][NBuGly]-NH2; N-terminus assumed)		64 µg/mL (≈ 53.4 µM)	16 µg/mL (≈ 13.3 µM)	4 µg/mL (≈ 3.34 µM)	4 µg/mL (≈ 3.34 µM)
Cc1ccc(CN(CC(=O)N(CCCCN)CC(=O)N(CC(=O)N(CCCCN)CC(=O)NCC(N)=O)Cc2cccc3ccccc23)C(=O)CN(Cc2cccc3ccccc23)C(=O)CN(CCCCN)C(=O)CNCCCCN)cc1 [compound 8] (H-[Nlys][Nlys][N(1-naphthylmethyl)Gly][N(4-MeBn)Gly][Nlys][N(1-naphthylmethyl)Gly][Nlys]G-NH2; N-terminus assumed)	49%	32 to 64 µg/mL	32 µg/mL (≈ 28 µM)	8 µg/mL (≈ 7 µM)	8 µg/mL (≈ 7 µM)
CCCCN(CC(N)=O)C(=O)CN(CCCCN)C(=O)CN(Cc1cccc2ccccc12)C(=O)CN(CCCCN)C(=O)CN(Cc1ccc(C)cc1)C(=O)CNC(=O)CN(CCCCN)C(=O)CNCCCCN [compound 3] (H-[Nlys][Nlys]G[N(4-MeBn)Gly][Nlys][N(1-naphthylmethyl)Gly][Nlys][NBuGly]-NH2; N-terminus assumed)	56%	>64 µg/mL	>64 µg/mL	64 µg/mL (≈ 60.5 µM)	64 µg/mL (≈ 60.5 µM)
CCCCN(CC(N)=O)C(=O)CN(CCCCN)C(=O)CN(Cc1cccc2ccccc12)C(=O)CN(C)C(=O)CN(Cc1ccc(C)cc1)C(=O)CN(Cc1cccc2ccccc12)C(=O)CN(CCCCN)C(=O)CNCCCCN [compound 9] (H-[Nlys][Nlys][N(1-naphthylmethyl)Gly][N(4-MeBn)Gly][Sar][N(1-naphthylmethyl)Gly][Nlys][NBuGly]-NH2; N-terminus assumed)	16%	32 µg/mL (≈ 28 µM)	16 µg/mL (≈ 14 µM)	4 µg/mL (≈ 3.5 µM)	4 µg/mL (≈ 3.5 µM)
CCCCN(CC(N)=O)C(=O)CN(CCCCN)C(=O)CN(Cc1cccc2ccccc12)C(=O)CN(CCCCN)C(=O)[C@@H](Cc1ccccc1)NC(=O)[C@@H](Cc1cccc2ccccc12)NC(=O)[C@@H](CCCCN)NC(=O)[C@H](N)CCCCN [compound 14] (H-[dK][dK][d1Nal][dF][Nlys][N(1-naphthylmethyl)Gly][Nlys][NBuGly]-NH2; N-terminus assumed)		64 µg/mL (≈ 54 µM)	16 µg/mL (≈ 13.5 µM)	4 µg/mL (≈ 3.38 µM)	4 µg/mL (≈ 3.38 µM)
CCCCN(CC(N)=O)C(=O)CN(CCCCN)C(=O)CN(Cc1cccc2ccccc12)C(=O)CN(CCCCN)C(=O)CN(Cc1ccc(C)cc1)C(=O)CN(Cc1cccc2ccccc12)C(=O)CN(CCCCN)C(=O)CN [compound 1] (H-G[Nlys][N(1-naphthylmethyl)Gly][N(4-MeBn)Gly][Nlys][N(1-naphthylmethyl)Gly][Nlys][NBuGly]-NH2; N-terminus assumed)	42%	32 µg/mL (≈ 28.4 µM)	16 µg/mL (≈ 14.2 µM)	4 µg/mL (≈ 3.55 µM)	4 µg/mL (≈ 3.55 µM)
CCCC[C@@H](NC(=O)CN(CCCCN)C(=O)[C@@H](Cc1cccc2ccccc12)NC(=O)CN(CCCCN)C(=O)[C@@H](Cc1ccccc1)NC(=O)[C@@H](Cc1cccc2ccccc12)NC(=O)CN(CCCCN)C(=O)CNCCCCN)C(N)=O [compound 15] (H-[Nlys][Nlys][d1Nal][dF][Nlys][d1Nal][Nlys][dNle]-NH2; N-terminus assumed)		>64 µg/mL	32 µg/mL (≈ 27 µM)	4 µg/mL (≈ 3.38 µM)	4 µg/mL (≈ 3.38 µM)
CCCCN(CC(N)=O)C(=O)CN(CCCCN)C(=O)CN(Cc1cccc2ccccc12)C(=O)CN(CCCCN)C(=O)CNC(=O)CN(Cc1cccc2ccccc12)C(=O)CN(CCCCN)C(=O)CNCCCCN [compound 4] (H-[Nlys][Nlys][N(1-naphthylmethyl)Gly]G[Nlys][N(1-naphthylmethyl)Gly][Nlys][NBuGly]-NH2; N-terminus assumed)	40%	>64 µg/mL	>64 µg/mL	64 µg/mL (≈ 58.5 µM)	32 µg/mL (≈ 29.2 µM)
CCCCN(CC(N)=O)C(=O)CN(CCCCN)C(=O)CNC(=O)CN(CCCCN)C(=O)CN(Cc1ccc(C)cc1)C(=O)CN(Cc1cccc2ccccc12)C(=O)CN(CCCCN)C(=O)CNCCCCN [compound 6] (H-[Nlys][Nlys][N(1-naphthylmethyl)Gly][N(4-MeBn)Gly][Nlys]G[Nlys][NBuGly]-NH2; N-terminus assumed)	6%	>64 µg/mL	>64 µg/mL	>64 µg/mL	>64 µg/mL
